Data from ChEMBL document CHEMBL4350978, “Phytochemical and pharmacological attributes of piperine: A bioactive ingredient of black pepper” (2019).
Values after ≈ are worked out from the molar mass of the structure shown.

Columns and labels:
Assay type in all cases: functional
Klebsiella pneumoniae [1] = assay: Antibacterial activity against Klebsiella pneumoniae assessed as diameter of zone of inhibition at […] by disc diffusion method
Candida albicans [2] = assay: Antifungal activity against Candida albicans assessed as diameter of zone of inhibition at […] by disc diffusion method
Pseudomonas aeruginosa [3] = assay: Antibacterial activity against Pseudomonas aeruginosa assessed as diameter of zone of inhibition at […] by disc diffusion method
Proteus vulgaris [4] = assay: Antibacterial activity against Proteus vulgaris by serial dilution method
Proteus vulgaris [5] = assay: Antibacterial activity against Proteus vulgaris assessed as diameter of zone of inhibition at […] by disc diffusion method
Candida albicans [6] = assay: Antifungal activity against Candida albicans by serial dilution method
Klebsiella pneumoniae [7] = assay: Antibacterial activity against Klebsiella pneumoniae by serial dilution method
Escherichia coli [8] = assay: Antibacterial activity against Escherichia coli assessed as diameter of zone of inhibition at […] by disc diffusion method
Escherichia coli [9] = assay: Antibacterial activity against Escherichia coli by serial dilution method
Staphylococcus aureus [10] = assay: Antibacterial activity against Staphylococcus aureus by serial dilution method
Staphylococcus aureus [11] = assay: Antibacterial activity against Staphylococcus aureus assessed as diameter of zone of inhibition at […] by disc diffusion method
Staphylococcus aureus [12] = assay: Antibacterial activity against Staphylococcus aureus assessed as diameter of zone of inhibition at 10 ug/disc by disc diffusion method; conditions: read-out: DIZ
Proteus vulgaris [13] = assay: Antibacterial activity against Proteus vulgaris assessed as diameter of zone of inhibition at 10 ug/disc by disc diffusion method; conditions: read-out: DIZ
Pseudomonas aeruginosa [14] = assay: Antibacterial activity against Pseudomonas aeruginosa assessed as diameter of zone of inhibition at 10 ug/disc by disc diffusion method; conditions: read-out: DIZ
Escherichia coli [15] = assay: Antibacterial activity against Escherichia coli assessed as diameter of zone of inhibition at 10 ug/disc by disc diffusion method; conditions: read-out: DIZ
Klebsiella pneumoniae [16] = assay: Antibacterial activity against Klebsiella pneumoniae assessed as diameter of zone of inhibition at 10 ug/disc by disc diffusion method; conditions: read-out: DIZ
Proteus vulgaris [17] = assay: Antibacterial activity against Proteus vulgaris assessed as diameter of zone of inhibition at 15 ug/disc by disc diffusion method; conditions: read-out: DIZ
Escherichia coli [18] = assay: Antibacterial activity against Escherichia coli assessed as diameter of zone of inhibition at 15 ug/disc by disc diffusion method; conditions: read-out: DIZ
Staphylococcus aureus [19] = assay: Antibacterial activity against Staphylococcus aureus assessed as diameter of zone of inhibition at 15 ug/disc by disc diffusion method; conditions: read-out: DIZ
Pseudomonas aeruginosa [20] = assay: Antibacterial activity against Pseudomonas aeruginosa assessed as diameter of zone of inhibition at 15 ug/disc by disc diffusion method; conditions: read-out: DIZ
Klebsiella pneumoniae [21] = assay: Antibacterial activity against Klebsiella pneumoniae assessed as diameter of zone of inhibition at 15 ug/disc by disc diffusion method; conditions: read-out: DIZ

What does the source list for `O=C(/C=C/C=C/c1ccc2c(c1)OCO2)N1CCCCC1` [PIPERINE]?
diameter of the inhibition zone (DIZ) (Klebsiella pneumoniae [1]): 15 mm; diameter of the inhibition zone (DIZ) (Candida albicans [2]): 23 mm; diameter of the inhibition zone (DIZ) (Pseudomonas aeruginosa [3]): 8 mm; MIC (Proteus vulgaris [4]): 12.5 mg/mL (≈ 43.8 mM); diameter of the inhibition zone (DIZ) (Proteus vulgaris [5]): 17 mm; MIC (Candida albicans [6]): 3.12 mg/mL (≈ 11 mM); MIC (Klebsiella pneumoniae [7]): 25 mg/mL (≈ 87.6 mM); diameter of the inhibition zone (DIZ) (Escherichia coli [8]): 20 mm; MIC (Escherichia coli [9]): 6.25 mg/mL (≈ 21.9 mM); MIC (Staphylococcus aureus [10]): 50 mg/mL (≈ 175 mM); diameter of the inhibition zone (DIZ) (Staphylococcus aureus [11]): 12 mm

With `CN[C@@H]1[C@H](O[C@H]2[C@H](O[C@H]3[C@H](O)[C@@H](O)[C@H](N=C(N)N)[C@@H](O)[C@@H]3N=C(N)N)O[C@@H](C)[C@]2(O)C=O)O[C@@H](CO)[C@H](O)[C@H]1O` [STREPTOMYCIN] as the molecule, how does the zone of inhibition at 10 µg/disc (Staphylococcus aureus [12]) read?
Its zone of inhibition at 10 µg/disc is 23 mm.

And the zone of inhibition at 10 µg/disc (Proteus vulgaris [13])?
The zone of inhibition at 10 µg/disc was 10 mm.

What about the zone of inhibition at 10 µg/disc (Pseudomonas aeruginosa [14]) of the same molecule?
The zone of inhibition at 10 µg/disc was 22 mm.

And the zone of inhibition at 10 µg/disc (Escherichia coli [15])?
Its zone of inhibition at 10 µg/disc is 13.5 mm.

What about the zone of inhibition at 10 µg/disc (Klebsiella pneumoniae [16]) of the same molecule?
The zone of inhibition at 10 µg/disc was 20 mm.

What does the source list for `CC[C@H]1OC(=O)[C@H](C)[C@@H](O[C@H]2C[C@@](C)(OC)[C@@H](O)[C@H](C)O2)[C@H](C)[C@@H](O[C@@H]2O[C@H](C)C[C@H](N(C)C)[C@H]2O)[C@](C)(O)C[C@@H](C)C(=O)[C@H](C)[C@@H](O)[C@]1(C)O` [ERYTHROMYCIN]?
zone of inhibition at 15 µg/disc (Proteus vulgaris [17]): 6 mm; zone of inhibition at 15 µg/disc (Escherichia coli [18]): 15 mm; zone of inhibition at 15 µg/disc (Staphylococcus aureus [19]): 24 mm; zone of inhibition at 15 µg/disc (Pseudomonas aeruginosa [20]): 18 mm; zone of inhibition at 15 µg/disc (Klebsiella pneumoniae [21]): 10 mm
